In patent US20110104144A1, “METHODS FOR TREATING CUTANEOUS LUPUS USING AMINOISOINDOLINE COMPOUNDS” (CELGENE CORPORATION, priority 2005, published 2011):

Legend:
Type in all cases: cell-based, Human
E-Selectin = experiment: HUVEC cell surface expression of E-Selectin by flow cytometry; settings: 10 μM
Method: (§1) A) Materials. Human Umbilical Vein Endothelial Cells (HUVEC) sent from LifeBank, were tested in Experiments A-K with several adhesion molecules. The adhesion molecules tested were CD51/CD61FITC (obtained from BD PharMingen, San Diego, Calif.; Catalog No. 555505), ICAM-1 PE also known as CD54 (obtained from BD PharMingen, San Diego, Calif.; Catalog No. 555511), ICAM-2 also known as CD102 (obtained from Research Diagnostics Inc., Concord, Mass.; Catalog No. RDI-CBL539FT), VCAM-1 (obtained from BD PharMingen, San Diego, Calif.; Catalog No. 555647), P-Selectin FITC (obtained from R&D Systems, Inc., Minneapolis, Minn.; Catalog No. BBA34), E-Selectin FITC (obtained from R&D Systems, Inc., Minneapolis, Minn.; Catalog No. BBA21), HLA Class I FITC (obtained from BD PharMingen, San Diego, Calif.; Catalog No. 555553), HLA Class II PE (obtained from BD PharMingen, San Diego, Calif.; Catalog No. 555558), CD44 FITC (obtained from BD PharMingen, San Diego, Calif.; Catalog No. 347943), CD144 (Cadherin VE) (obtained from CHEMICON International, Inc., Temecula, Calif.; Catalog No. MAB1989), IgG2a FITC (obtained from BD PharMingen, San Diego, Calif.; Cat #556652), Ms IgG2a (obtained from CHEMICON International, Inc., Temecula, Calif.; Cat. No. PP102), IgG1 FITC (obtained from BD PharMingen, San Diego, Calif.; Cat. No. 349041) and IgG1 PE (obtained from BD PharMingen, San Diego, Calif.; Cat. No. 349043).
(§2) Compound (1) ((+)-2-[1-(3-ethoxy-4-methoxyphenyl)-2-methylsulfonylethyl]-4-acetylaminoisoindoline-1,3-dione) and Compound (2) (4-(amino)-2-(2,6-dioxo(3-piperidyl))-isoindoline-1,3-dione) were obtained according to the preparation procedures disclosed herein. 16,16-Dimethyl-PGE2 (hereinafter PGE2) was obtained from BIOMOL International, L.P. (Plymouth Meeting, Pa.; Catalog No. PG-021). TNF-αwas obtained from Pierce Biotechnology (Rockford, Ill.; Catalog No. RTNFA 10).
B) Methods. HUVEC's were plated on 6-well plates at a concentration of 1×10^5 cells/well in 3 ml EBM® endothelial basal media (obtained from Cambrex Corporation, East Rutherford, N.J.; Catalog No. CC-3121) and singlequots (obtained from Cambrex Corporation, East Rutherford, N.J.; Catalog No. CC-4133). The cells were incubated overnight in a 37° C. and 5% CO2 humidified incubator to allow cells to attach. The old media was removed in next day and replaced with 3 ml fresh EBM® endothelial basal media. Then, samples of 3 μl of 10 mM of Compound (1), Compound (2), PGE2 and a mixture of Compound (1) and PGE2 were added separately to each well of the plates in duplicate to give a final concentration of 10 μM. An unstimulated DMSO control and a TNF-α-stimulated control were also added in duplicate. The plates were incubated in a 37° C. and 5% CO2 humidified incubator for 1 hr. […] The plates were incubated overnight in a 37° C. and 5% CO2 humidified incubator. The cells were also tested without TNF-α. The media was removed in the next day and each well was washed with 3 ml of phosphate buffered saline (PBS). Then, 3 ml of PBS containing 1 mM of EDTA (ethylenediaminetetraacetate) was added to each well to allow the cells to detach. Once the cells detached, they were gently scraped and placed in 4.5 ml Falcon tubes. The tubes were then centrifuged at 1200 RPM for 8 minutes at 4° C. The supernatant was carefully removed. Next, 50 μl of PBS-FACS buffer (5% fetal bovine serum (FBS), 0.02% sodium azide in PBS) and 20 μl of antibodies were added to all tubes as follows:
After the antibodies were added, the tubes were incubated on ice for 30 minutes and covered with foil. Then, the tubes were centrifuged at 1200 RPM for 8 minutes at 4° C. The supernatant was carefully removed. The cells were re-suspended in 2 ml of PBS-FACS buffer and centrifuged again as above. The supernatant was carefully removed again and the cells were re-suspended in 500 μl of PBS-FACS buffer. The tubes were then analyzed using a flow cytometer. […]

VE-Cadherin = experiment: HUVEC cell surface expression of VE-Cadherin (CD144) by flow cytometry; settings: 10 μM, FIG. 4
Method: as §1, §2
(§3) B) Methods. […]

CD44 = experiment: HUVEC cell surface expression of CD44 by flow cytometry; settings: 10 μM, FIG. 4
Method: as §1, §2, §3

Compound: CCOc1cc(C(CS(C)(=O)=O)N2C(=O)c3cccc(NC(C)=O)c3C2=O)ccc1OC (single isomer, unassigned; (+)) [Compound (1), (+)-2-[1-(3-ethoxy-4-methoxyphenyl)-2-methylsulfonylethyl]-4-acetylaminoisoindoline-1,3-dione]
- TNF-α-stimulated cell surface expression of E-Selectin (E-Selectin; TNF-α (1 ng/ml) stimulated, FIG. 3): unaffected
- E-Selectin cell surface expression (E-Selectin; unstimulated, FIG. 2): inhibited
- TNF-α-stimulated cell surface expression of VE-Cadherin (VE-Cadherin): unaffected
- inhibition of TNF-α-stimulated cell surface expression of CD44 (CD44): approximately 30%
